Key:
[1] = In vitro permeation experiment of FP drug-in-adhesive patches in two-chamber diffusion cells; format: in vitro ADME, rabbit; conditions: for ER (Q24h with enhancer/Q24h without enhancer) for R-FP / Tlag of R-FP / Js of R-FP: permeant R-FP; for ER (Q24h with enhancer/Q24h without enhancer) for R-FP / Tlag of R-FP / Js of R-FP / ER (Q24h with enhancer/Q24h without enhancer) for S-FP / Tlag of S-FP / Js of S-FP / ER (Q24h with enhancer/Q24h without enhancer) for SR-FP / Tlag of SR-FP / Js of SR-FP: patch 5% drug (w/w); for ER (Q24h with enhancer/Q24h without enhancer) for R-FP / ER (Q24h with enhancer/Q24h without enhancer) for S-FP / ER (Q24h with enhancer/Q24h without enhancer) for SR-FP: enhancer equimolar to 5% 4-TER; for Tlag of R-FP / Js of R-FP / Tlag of S-FP / Js of S-FP / Tlag of SR-FP / Js of SR-FP: enhancer equimolar to 5% 4-TER (control: no enhancer); for Js of R-FP / Js of S-FP / Js of SR-FP: mean ± SD, n = 4; for ER (Q24h with enhancer/Q24h without enhancer) for S-FP / Tlag of S-FP / Js of S-FP: permeant S-FP; for ER (Q24h with enhancer/Q24h without enhancer) for SR-FP / Tlag of SR-FP / Js of SR-FP: permeant SR-FP
Source text: Male, Japanese big-eared rabbits weighting 2.5–3.0 kg were purchased from the animal experimental center of North China University of Science and Technology. The experimental process was in accordance with the ‘Ethical Guide for Laboratory Animal Investigation’ and was approved by the Animal Experimental Center Committee of North China University of Science and Technology. All efforts were made to minimize animal suffering and to limit the number of animals used.
The hair of back skin was removed by clipper and electrical shaver carefully when the rabbits were anesthetized with ether. Full thickness of back skin was excised after the rabbit was sacrificed by injecting air into the ear veins, and the subcutaneous fat tissue was carefully removed using the surgical scissor and scalpel. The integrity of the skin was confirmed by microscopic observation method. The treated rabbit skin was cut into a size of 1.5 cm × 1.5 cm and stored at –80 °C until use. Before use, it needed to be immersed in physiological saline for 20 min to thaw.
Drug-in-adhesive patch (drug loading of 5% by adhesive) was prepared by using solvent evaporation method. An appropriate amount of FP was dissolved in a suitable amount of ethyl acetate, which was later added to the adhesive and mixed thoroughly with a mechanical stirrer. The resulting solution was coated onto release liner (Scotch Pak® 9744, 3M, USA) by using lab coating unit (6025, BLD Instruments Co. Ltd., Guangdong, China). The coated laminate was dried at 50 °C for 15 min. After the solvent had been removed, it was covered with backing laminate (Scotch Pak® 9732, 3M).
Modified two-chamber diffusion cells with an effective diffusion area of 0.95 cm^2 were employed in the in vitro permeation experiment. The cells were kept at 32 °C by the circulated water bath and stirred with magnetic bars at 400 rpm. The dermis side of the skin was attached to one-half of the side-by-side diffusion cells, the FP patch was pressed on the skin with the adhesive side facing the SC, and pH 7.4 PBS was used as the receptor medium. At predetermined time points (2, 4, 6, 8, 10, 12 and 24 h), the receptor solution of 2.0 mL was withdrawn and equal volume PBS was added to maintain a constant volume of receptor solution.
The cumulative amount of each drug permeating per unit area (Q) versus time was plotted. Q24h=(3.5Ci+2.0∑i=1n−1Ci−1)/A
Q was the cumulative skin permeation amount. Ci was the concentration in the receiver compartment at time i, A was the effective diffusion area of diffusion.
The steady-state flux (Js, µg/cm^2/h) was calculated from the slope of linear region of the plot. The lag-time was determined by extrapolating the linear portion of the curve to the abscissa. Js=dQr/Adt
Enhancement ratio (ER) was used to evaluate the activity of the enhancers, which is the ratio of Q24h with enhancer to Q24h without enhancer. ER=Q24h(with enhancer)/Q24h(without enhancer)

[2] = In vivo pharmacokinetic study, transdermal patch administration; set-up: species or system rabbit; conditions: rabbits, SR-FP patch with 5% enhancer or without (control); for V of R-FP: analyte R-; for V of S-FP: analyte S-
Protocol: Thirty-six male rabbits weighing 2.5 kg were divided into six groups, and the back skin was intact without erythema. For patch administration studies, patches without or with enhancers (120 mg/kg) were stuck to the shaved area of the rabbits. They were administered as follows: (1) control group: only the SR-FP; (2) enhancer group A: prepared SR-FP patch with 5% d-4-TER; (3) enhancer group B: prepared SR-FP patch with 5% d-4-T-dC18; (4) enhancer group C: prepared SR-FP patch with 5% l-4-T-dC18; (5) enhancer group D: prepared S-FP patch with 5% d-4-T-dC18; (6) enhancer group E: prepared R-FP patch with 5% d-4-T-dC18. In order to prevent the patches fallen off, gauze and medical tape were used to fix the patches. The blood from ear vein of rabbit was collected 0.5 mL at 0.5, 1, 2, 4, 6, 8, 12, 16, 20, 24, 26, 28, 30, 32, 36 and 48 h, and the patch was removed after 24 h, then the residual drug was wiped with physiological saline. The sample was processed by the same method as IV. All animal studies were carried out in accordance with the NIH Guidelines for the Care and Use of Laboratory Animals and were also approved by the Life Science Research Center of North China University of Science and Technology.
After being thawed and equilibrated to room temperature, an aliquot (100 μL) of plasma sample was spiked with […] (10 μL) of 40.0 μg/mL and 400 μL methanol. The samples were vortexed for 5 min and followed by centrifugation at 16,000 rpm for 10 min at 25 °C. After centrifugation, the supernatant was transferred to a clean tube and evaporated to dryness at 40 °C under a gentle stream of nitrogen. The dried samples were reconstituted with 100 μL mobile phase, vortexed and centrifuged before analysis.
Pharmacokinetic parameters were calculated using WinNonlin® software (Pharsight Corporation, San Diego, CA, USA) based on noncompartmental model, including the maximal plasma drug concentration (Cmax), the time to reach Cmax (Tmax) which were obtained from the observed data, the area under the time–concentration curve from time 0 to time t (AUC0–t) of distribution which was calculated using the linear trapezoidal rule, the mean residence time (MRT), the plasma clearance (Cl) and the apparent volume(V). Enhancement factor (Ef) was calculated from the following equation: Ef=AUC0−t(with enhancer)/AUC0−t(without enhancer)
The concentrations of drugs in the receptor medium or rabbit plasma were determined using a validated HPLC method. The HPLC system was equipped with a Shimadzu HPLC apparatus, including an LC-20AT pump, a SIL20A syringe, an SPD-20A detector, and a CTO-20A column oven. The propylparaben was used as an internal standard, and the flow rate of chromatographic analysis was set 1.0 mL/min. For in vitro analysis of SR-FP, thermo (USA) C18 column (150 mm × 4.6 mm, 5 μm particle) maintained at 40 °C was used to elute SR-FP, the mobile phase was used methanol and 1% aqueous glacial acetic acid (60:40, v/v) and the wavelength was set at 247 nm. The HPLC conditions of S-FP and R-FP were as follows: The column was CHIRALPAK®IA (4.6 mm × 250 mml, 5 μm particle diameter) of DAOCEL (Shanghai, China). The mobile phase consisted of acetonitrile and trifluoroacetic acid (0.05%, 50:50, v/v), the wavelength was set at 254 nm. For in vivo analysis of S-FP and R-FP, the mobile phase consisted of acetonitrile and trifluoroacetic acid (0.05%, 35:65, v/v), and other conditions were the same to in vitro analysis.
Absolute bioavailability (F) was calculated by the following equation: F=AUCpatch·Dosei.v./AUCi.v.·Dosepatch

| Structure (SMILES) | ER (Q24h with enhancer/Q24h without enhancer) for R-FP [1] | Tlag of R-FP [1] [h] | Js of R-FP [1] [μg/cm^2/h] | ER (Q24h with enhancer/Q24h without enhancer) for S-FP [1] | Tlag of S-FP [1] [h] | Js of S-FP [1] [μg/cm^2/h] | ER (Q24h with enhancer/Q24h without enhancer) for SR-FP [1] | Tlag of SR-FP [1] [h] | Js of SR-FP [1] [μg/cm^2/h] | V of R-FP [2] [L] | V of S-FP [2] [L] | cumulative transport of SR-FP at 24 h ([1]; 3% enhancer level (w/w)) [μg/cm^2] | cumulative transport of SR-FP at 24 h ([1]; 5% enhancer level (w/w)) [μg/cm^2] | Q24h of SR-FP ([1]; enhancer at same molar concentration as 5% 4-TER) [μg/cm^2] |
| --- | --- | --- | --- | --- | --- | --- | --- | --- | --- | --- | --- | --- | --- | --- |
| CCCCCCC(=O)OC1(C(C)C)CC=C(C)CC1 (stereo not drawn) [d-4-T-C7, d-4-methyl-1-(1-methylethyl)-3-cyclohexen-1-yl heptanoate] | 1.96 | 2.40 | 4.40 ± 1.42 | 1.69 | 2.91 | 4.39 ± 0.49 | 2.14 | 3.74 | 14.46 ± 1.52 | – | – | – | – | – |
| CCCCCCCCCCCCCC(=O)OC1(C(C)C)CC=C(C)CC1 (stereo not drawn) [d-4-T-C14, d-4-methyl-1-(1-methylethyl)-3-cyclohexen-1-yl tetradecanoate] | 3.19 | 3.98 | 8.16 ± 0.84 | 3.53 | 2.04 | 7.75 ± 1.68 | 2.85 | 3.58 | 18.79 ± 3.81 | – | – | – | – | – |
| CCCCCCCCC=CCCCCCCCC(=O)OC1(C(C)C)CC=C(C)CC1 (stereo not drawn) [d-4-T-dC18, d-4-methyl-1-(1-methylethyl)-3-cyclohexen-1-yl octadec-9-enoate] | 4.43 | 3.95 | 11.81 ± 1.23 | 4.13 | 4.08 | 10.99 ± 2.17 | 2.77 | 1.85 | 17.57 ± 4.13 | 139.60 ± 34.29 | 92.94 ± 28.69 | – | – | – |
| CC1=CCC(O)(C(C)C)CC1 (stereo not drawn) [d-4-TER, d-4-terpineol, reference compound] | 2.74 | 3.58 | 7.34 ± 2.51 | 2.97 | 2.45 | 7.60 ± 1.47 | 2.16 | 3.60 | 14.43 ± 3.62 | 251.59 ± 56.91 | 99.27 ± 18.81 | 168.14 ± 19.95 | 266.01 ± 58.81 | – |

Next, values leading:

| ER (Q24h with enhancer/Q24h without enhancer) for R-FP [1] | Tlag of R-FP [1] [h] | Js of R-FP [1] [μg/cm^2/h] | ER (Q24h with enhancer/Q24h without enhancer) for S-FP [1] | Tlag of S-FP [1] [h] | Js of S-FP [1] [μg/cm^2/h] | ER (Q24h with enhancer/Q24h without enhancer) for SR-FP [1] | Tlag of SR-FP [1] [h] | Js of SR-FP [1] [μg/cm^2/h] | V of R-FP [2] [L] | V of S-FP [2] [L] | cumulative transport of SR-FP at 24 h ([1]; 3% enhancer level (w/w)) [μg/cm^2] | cumulative transport of SR-FP at 24 h ([1]; 5% enhancer level (w/w)) [μg/cm^2] | Q24h of SR-FP ([1]; enhancer at same molar concentration as 5% 4-TER) [μg/cm^2] | Structure (SMILES) |
| --- | --- | --- | --- | --- | --- | --- | --- | --- | --- | --- | --- | --- | --- | --- |
| 1.38 | 2.11 | 3.19 ± 0.47 | 1.10 | 4.18 | 3.00 ± 0.69 | 1.35 | 2.96 | 6.58 ± 1.41 | – | – | – | – | – | CCCCCCC(=O)OC1(C(C)C)CC=C(C)CC1 (stereo not drawn) [l-4-T-C7, l-4-methyl-1-(1-methylethyl)-3-cyclohexen-1-yl heptanoate] |
| 2.92 | 3.51 | 7.62 ± 1.49 | 2.73 | 3.37 | 6.80 ± 0.50 | 1.92 | 2.45 | 11.83 ± 6.27 | – | – | – | – | – | CCCCCCCCCCCCCC(=O)OC1(C(C)C)CC=C(C)CC1 (stereo not drawn) [l-4-T-C14, l-4-methyl-1-(1-methylethyl)-3-cyclohexen-1-yl tetradecanoate] |
| 4.6 | 3.68 | 12.04 ± 2.51 | 4.98 | 3.89 | 12.98 ± 3.51 | 4.45 | 3.61 | 20.53 ± 3.11 | 65.31 ± 28.90 | 68.51 ± 17.97 | – | – | 547.20 ± 35.94 | CCCCCCCCC=CCCCCCCCC(=O)OC1(C(C)C)CC=C(C)CC1 (stereo not drawn) [l-4-T-dC18, l-4-methyl-1-(1-methylethyl)-3-cyclohexen-1-yl octadec-9-enoate] |
| 2.64 | 3.82 | 6.99 ± 1.12 | 2.25 | 4.07 | 6.02 ± 0.99 | 1.81 | 3.13 | 11.43 ± 2.06 | – | – | 145.16 ± 13.64 | 222.09 ± 19.19 | – | CC1=CC[C@@](O)(C(C)C)CC1 [l-4-TER, l-4-terpineol, reference compound] |
